In US9470680B2, “Fluorescence-based approach to monitor release factor-catalyzed termination of protein synthesis” (THE TRUSTEES OF COLUMBIA UNIVERSITY IN THE CITY OF NEW YORK, priority 2011, dated 2016):

Legend:
[1] = tested on: polypeptide release at a stop codon; conditions: cited from earlier work
[2] = tested on: RC2 (release complex with L1(Cy5) ribosomes and (Cy3)tRNAPhe); test: L1-tRNA smFRET monitoring the GS1/GS2 equilibrium; assay type: biochemical, Escherichia coli
Method: RCs assembled on a biotinylated mRNA were immobilized on the surface of a streptavidin-derivatized quartz flow cell and visualized with single-molecule resolution using a total internal reflection fluorescence microscope. RC surface immobilization strategy and lab-built total internal reflection fluorescence (TIRF) microscope are described in FIG. 10. Experiments were performed at room temperature in Tris-polymix buffer at 15 mM Mg(OAc)2, supplemented with an oxygen-scavenging system (300 μg ml^−1 glucose oxidase, 40 μg ml^−1 catalase and 1% (w/v)(β-D-glucose). In addition, 1 mM 1,3,5,7-cyclooctatetraene (Aldrich) and p-nitrobenzyl alcohol (Fluka) was added to all buffers in order to quench a long-lived, non-fluorescent triplet state sampled by the Cy5 fluorophore. The oxygen-scavenging and triplet state quencher systems have no effect on the in vitro translation system used herein (Gonzalez et al. 2007; Blanchard et al. 2004b).
(§1) Quartz microscope slides were cleaned and subsequently derivatized with a mixture of polyethyleneglycol (PEG) and PEG-biotin in order to passivate the surface (Blanchard et al. 2004b). Just prior to data acquisition, slides were treated with streptavidin, allowing immobilization of ribosomal RCs bound to an mRNA with a 3′-biotinylated DNA oligonucleotide pre-annealed to its 5′ end. smFRET data was collected with a wide-field, prism-based total internal reflection fluorescence microscope utilizing a 150 mW diode-pumped 532 nm laser (CrystaLaser) operating at 24 mW for Cy3 excitation, a 25 mW diode-pumped 643 nm laser (CrystaLaser) operating at 19 mW for direct Cy5 excitation, a Dual-View multi-channel imaging system (MAG Biosystems) for separation of Cy3 and Cy5 fluorescence emissions, and a back-thinned charge-coupled device camera (Cascade II, Princeton Instruments) with 2-pixel binning and 50 ms exposure time for detection. Single ribosomal RCs were identified by characteristic single-fluorophore fluorescence intensities as well as single-step fluorophore photobleaching.
Raw intensity data was analyzed with the Metamorph software suite (Molecular Devices). […] For L1-tRNA smFRET experiments with RC2, excited Cy5 was directly with the 643 nm laser in frame one, followed by excitation with the 532 nm laser in order to generate FRET. […] Acquired trajectories composed of a pair of Cy3 and Cy5 intensity versus time trajectories from single ribosomes, were then visually inspected. […] For all RRF and RF3(GDPNP) datasets, an automated selection algorithm was first utilized before visual inspection of the trajectories. This algorithm averages each trajectory over three data points, differentiates intensity with respect to time, and calculates the correlation coefficient for each Cy3/Cy5 pair. Trajectories with a negative correlation coefficient (anti-correlated) were kept for further analysis. Finally, all trajectories were required to last at least 0.5 seconds (i.e. 10 frames) before photobleaching of either fluorophore.
Cy3 and Cy5 fluorescence intensities were baseline corrected in each trajectory by generating one-dimensional Cy3 and Cy5 fluorescence intensity histograms from trajectories within each dataset, determining the intensity value of the most populated bin (which represents background noise intensity after fluorophore photobleaching), and then subtracting this value from all Cy3 and Cy5 intensity data points within every trajectory. Due to the imperfect performance of emission filters, the Cy3 signal bleed-through into the Cy5 channel was experimentally determined to be ˜9%. The Cy5 intensity of each trajectory was corrected using this bleed-through coefficient. smFRET values for each Cy3/Cy5 data point were calculated using ICy5/(ICy3+ICy5), where ICy3 and ICy5 are the intensities of Cy3 and Cy5, respectively.
The rates of GS1→GS2 (kGS1→GS2) and G52→GS1 (kGS2→GS1) transitions for each dataset were determined as follows. […]

[3] = tested on: RF1-bound RCs; test: RF3 activity assay (RF3-catalyzed RF1 recycling, multiple-turnover peptide release); assay type: biochemical, Escherichia coli; conditions: limiting RF1; GDP, GTP or GDPNP; 10 minutes
Method: RF3 activity was tested by following the extent of peptide release in cases where RF1 was limiting and RF3 was required to actively recycle RF1, thereby enabling multiple turnover (Zavialov et al. 2001). Reactions were performed as described, with two exceptions: when present, GDP, GTP, or GDPNP was added to the RF1/RF3 mix during the 1 minute pre-incubation, and upon adding the RF1/RF3/nucleotide mix to RCs, reactions were incubated for 10 minutes.

[4] = target: vacant ribosomes; conditions: in the absence of mRNA or tRNAs; read-out: Kd of RRF binding to vacant ribosomes; cited from earlier work
[5] = target: GS2 conformation of the PoTC (RC2Pmn); test: RRF titration, binding isotherm fit of GS2/GS1 peak area ratio; design: species or system Escherichia coli
Source text: (§2) To more quantitatively probe the subtle effect of RRF on the GS1⇄GS2 equilibrium, one-dimensional smFRET histograms of the entire population of trajectories were plotted as a function of RRF concentration (FIG. 24). The areas under the peaks centered at 0.16 and 0.76 FRET report the equilibrium populations of GS1 and GS2, respectively. […] Assuming that RRF can bind to both GS1 and GS2, a plot of the GS2/GS1 peak area ratio (Keq) vs. RRF concentration can be fit by the following binding isotherm in order to determine the equilibrium dissociation constants for RRF binding to GS1 (Kd,GS1) and GS2 (Kd,GS2) (Sarkar et al. 2007):
(§3) [formula] where C is the GS2/GS1 peak area ratio in the absence of RRF.

[6] = target: GS1 conformation of the PoTC (RC2Pmn); test: as above; design: species or system Escherichia coli
Source text: as §2, §3

[7] = tested on: RC1 (release complex, fMet-Phe-(Cy3)tRNAPhe in the P site, stop codon at the A site); test: RF1-tRNA smFRET between P-site (Cy3)tRNAPhe and (Cy5)RF1 bound at the A site; assay type: binding, Escherichia coli; conditions: UAA-U stop codon, in the presence of paromomycin (100 μM per FIG. 11)
Source text: RCs assembled on a biotinylated mRNA were immobilized on the surface of a streptavidin-derivatized quartz flow cell and visualized with single-molecule resolution using a total internal reflection fluorescence microscope. RC surface immobilization strategy and lab-built total internal reflection fluorescence (TIRF) microscope are described in FIG. 10. […]
as §1, with “Single ribosomal RCs were identified by characteristic single-fluorophore fluorescence intensities as well as single-step fluorophore photobleaching.” left out
Raw intensity data was analyzed with the Metamorph software suite (Molecular Devices). […]

[8] = RC2 pre-treated with puromycin (RC2Pmn), no factors, corrected rate
[9] = RC2Pmn in the presence of 1 μM factor
[10] = RC2RF1 in the presence of 1 μM RF1, RF3(GDP) and 1 mM GTP
[11] = RC2RF1 in the presence of 1 μM RF1 and 1 μM RF3 form, no GTP
[12] = RC2Pmn, 0-1.5 μM RRF (near Kd,GS2)

Molecule: NC[C@@H]1O[C@H](O[C@H]2[C@@H](O)[C@H](O[C@@H]3[C@@H](O)[C@H](N)C[C@H](N)[C@H]3O[C@H]3O[C@H](CO)[C@@H](O)[C@H](O)[C@H]3N)O[C@@H]2CO)[C@H](N)[C@@H](O)[C@@H]1O [paromomycin]
- inhibition of polypeptide release at a stop codon [1]: very strongly inhibits polypeptide release at a stop codon

Molecule: COc1ccc(C[C@H](N)C(=O)N[C@H]2[C@@H](O)[C@H](n3cnc4c(N(C)C)ncnc43)O[C@@H]2CO)cc1 [puromycin, reference compound]
- trajectories fluctuating between 0.16 and 0.76 FRET ([2]; RC2 pre-treated with puromycin (RC2Pmn), no factors): ~63%
- kGS1→GS2 [2, 8]: 0.52 ± 0.03 s⁻¹
- kGS2→GS1 [2, 8]: 1.36 ± 0.03 s⁻¹

Molecule: RF1: Escherichia coli class 1 release factor 1, purified, co-expressed with PrmC methyltransferase
- trajectories fluctuating between 0.16 and 0.76 FRET [2, 9]: 9%
- trajectories stably centered at / sampling only 0.16 FRET (GS1) [2, 9]: 85%
- trajectories stably centered at / sampling only 0.76 FRET (GS2) [2, 9]: 6%
- trajectories fluctuating between 0.16 and 0.76 FRET ([2]; RC2 in the presence of 1 μM factor): 2%
- trajectories stably centered at 0.16 FRET (GS1) ([2]; RC2 in the presence of 1 μM factor (87% without RF1)): 98%

Molecule: RF3(GDP): RF3 in the GDP form
- kGS2→GS1 relative to RC2Pmn in the absence of RF1, RF3 and guanine nucleotide ([2]; RC2RF1+RF3(GDP)+GTP versus 1.36±0.03 s^−1): ~3 fold
- kGS2→GS1 ([2]; RC2RF1+RF3(GDP)+GTP, 1 μM RF1, 10 μM GDP and 1 mM GTP, corrected rate, lower limit): ≥ 3.7 ± 0.6 s⁻¹
- trajectories exhibiting fluctuations between GS1 and GS2 [2, 10]: 42%
- trajectories stably centered at 0.16 FRET (GS1) [2, 10]: 58%
- trajectories fluctuating between 0.16 and 0.76 FRET [2, 11]: 2%
- trajectories stably centered at 0.16 FRET (GS1) [2, 11]: 98%

Molecule: RF3(GDPNP): RF3 with GDPNP, a non-hydrolyzable GTP analog
- trajectories fluctuating between 0.16 and 0.76 FRET [2, 9]: 22%
- trajectories stably centered at / sampling only 0.16 FRET (GS1) [2, 9]: 5%
- trajectories stably centered at / sampling only 0.76 FRET (GS2) [2, 9]: 73%

Molecule: RF3: Escherichia coli class II release factor, a GTPase
- nucleotide dependence of RF3-catalyzed RF1 recycling [3]: exhibits the proper nucleotide dependence in recycling RF1

Molecule: RRF: Escherichia coli ribosome recycling factor
- Kd [4]: 200 to 600 nM
- Kd ([5]; RC2Pmn + RRF titration): 900 ± 300 nM
- binding to GS2 over GS1 ([5]; from Kd,GS2 and Kd,GS1): greater than an order of magnitude tighter binding to GS2 over GS1
- Kd [6]: 12 ± 2 µM
- kGS1→GS2 relative to free RC2Pmn ([2]; 50 μM RRF versus 0.52±0.03 s^−1): 1.6 fold
- trajectories fluctuating between 0.16 and 0.76 FRET [2, 9]: 70%
- trajectories stably centered at / sampling only 0.16 FRET (GS1) [2, 9]: 7%
- trajectories stably centered at / sampling only 0.76 FRET (GS2) [2, 9]: 23%
- kGS1→GS2 as a function of RRF concentration [2, 12]: remain unchanged
- kGS2→GS1 as a function of RRF concentration [2, 12]: decreases linearly
- kGS1→GS2 ([2]; RC2Pmn, 50 μM RRF): 0.83 ± 0.06 s⁻¹

Molecule: S192C: single-cysteine S192C RF1 (PVT domain) labeled with Cy5
- lifetime of the FRET state (dwell time analysis) [7]: < 0.38 ± 0.02 s

Molecule: nucleotide-free RF3: RF3 without guanine nucleotide
- trajectories fluctuating between 0.16 and 0.76 FRET [2, 11]: 1%
- trajectories stably centered at 0.16 FRET (GS1) [2, 11]: 99%
